ChEMBL document CHEMBL3046607, “Synthesis and Herbicidal Activity of New 1-Alkyl-3-aryloxypyrazole-4-carboxamide Derivatives” (J Pestic Sci, 2004)
Active and inactive are the calls of the source. No cut-off for these calls is given here.

How the values were obtained:
Rotala indica [1] = experiment: Pre-emergence herbicidal activity against Rotala indica at 100 g a.i/ha measured after 14 days; format: functional, organism-based
Echinochloa oryzicola [2] = experiment: Pre-emergence herbicidal activity against Echinochloa oryzicola assessed as bleaching of stem/leaf parts; format: functional, organism-based
Rotala indica [3] = experiment: Post-emergence herbicidal activity against Rotala indica assessed as bleaching of stem/leaf parts; format: functional, organism-based
Elatine triandra [4] = experiment: Pre-emergence herbicidal activity against Elatine triandra assessed as bleaching of stem/leaf parts; format: functional, organism-based
Pontederia vaginalis [5] = experiment: Pre-emergence herbicidal activity against Monochoria vaginalis at 100 g a.i/ha measured after 14 days; format: functional, organism-based
Elatine triandra [6] = experiment: Post-emergence herbicidal activity against Elatine triandra assessed as bleaching of stem/leaf parts; format: functional, organism-based; note: test concentration or dose not given here
Cyperus difformis [7] = experiment: Pre-emergence herbicidal activity against Cyperus difformis at 100 g a.i/ha measured after 14 days; format: functional, organism-based
Pontederia vaginalis [8] = experiment: Post-emergence herbicidal activity against Monochoria vaginalis assessed as bleaching of stem/leaf parts; format: functional, organism-based
Oryza sativa [9] = experiment: Phytotoxicity against Oryza sativa cv. Koshihikari (rice) at 100 g a.i/ha measured after 14 days; format: organism-based; conditions: in vivo, 336 h
Echinochloa oryzicola [10] = experiment: Pre-emergence herbicidal activity against Echinochloa oryzicola at 100 g a.i/ha measured after 14 days; format: functional, organism-based
[11] = tested on: Schoenoplectiella juncoides; experiment: Pre-emergence herbicidal activity against Schoenoplectiella juncoides assessed as bleaching of stem/leaf parts; format: functional, organism-based
Lindernia procumbens [12] = experiment: Post-emergence herbicidal activity against Lindernia procumbens assessed as bleaching of stem/leaf parts; format: functional, organism-based; note: test concentration or dose not given here
Ammannia multiflora [13] = experiment: Post-emergence herbicidal activity against Ammannia multiflora assessed as bleaching of stem/leaf parts; format: functional, organism-based
Lindernia procumbens [14] = experiment: Pre-emergence herbicidal activity against Lindernia procumbens at 100 g a.i/ha measured after 14 days; format: functional, organism-based
Ammannia multiflora [15] = experiment: Pre-emergence herbicidal activity against Ammannia multiflora at 100 g a.i/ha measured after 14 days; format: functional, organism-based
Ammannia multiflora [16] = experiment: Pre-emergence herbicidal activity against Ammannia multiflora assessed as bleaching of stem/leaf parts; format: functional, organism-based
Pontederia vaginalis [17] = experiment: Pre-emergence herbicidal activity against Monochoria vaginalis assessed as bleaching of stem/leaf parts; format: functional, organism-based
Echinochloa oryzicola [18] = experiment: Post-emergence herbicidal activity against Echinochloa oryzicola assessed as bleaching of stem/leaf parts; format: functional, organism-based
Cyperus difformis [19] = experiment: Post-emergence herbicidal activity against Cyperus difformis assessed as bleaching of stem/leaf parts; format: functional, organism-based; note: test concentration or dose not given here
Rotala indica [20] = experiment: Pre-emergence herbicidal activity against Rotala indica assessed as bleaching of stem/leaf parts; format: functional, organism-based
Elatine triandra [21] = experiment: Pre-emergence herbicidal activity against Elatine triandra at 100 g a.i/ha measured after 14 days; format: functional, organism-based
[22] = tested on: Schoenoplectiella juncoides; experiment: Post-emergence herbicidal activity against Schoenoplectiella juncoides assessed as bleaching of stem/leaf parts; format: functional, organism-based; note: test concentration or dose not given here
[23] = tested on: Schoenoplectiella juncoides; experiment: Pre-emergence herbicidal activity against Schoenoplectiella juncoides at 100 g a.i/ha measured after 14 days; format: functional, organism-based
Lindernia procumbens [24] = experiment: Pre-emergence herbicidal activity against Lindernia procumbens assessed as bleaching of stem/leaf parts; format: functional, organism-based
Cyperus difformis [25] = experiment: Pre-emergence herbicidal activity against Cyperus difformis assessed as bleaching of stem/leaf parts; format: functional, organism-based
[26] = tested on: Schoenoplectiella juncoides; experiment: Pre-emergence herbicidal activity against Schoenoplectiella juncoides at 500 g a.i/ha measured after 14 days; format: functional, organism-based
Echinochloa oryzicola [27] = experiment: Pre-emergence herbicidal activity against Echinochloa oryzicola at 500 g a.i/ha measured after 14 days; format: functional, organism-based
Oryza sativa [28] = experiment: Phytotoxicity against Oryza sativa cv. Koshihikari (rice) at 500 g a.i/ha measured after 14 days; format: organism-based; conditions: in vivo, 336 h
Cyperus difformis [29] = experiment: Pre-emergence herbicidal activity against Cyperus difformis at 500 g a.i/ha measured after 14 days; format: functional, organism-based
Pontederia vaginalis [30] = experiment: Pre-emergence herbicidal activity against Monochoria vaginalis at 500 g a.i/ha measured after 14 days; format: functional, organism-based
Rotala indica [31] = experiment: Pre-emergence herbicidal activity against Rotala indica at 500 g a.i/ha measured after 14 days; format: functional, organism-based
Ammannia multiflora [32] = experiment: Pre-emergence herbicidal activity against Ammannia multiflora at 500 g a.i/ha measured after 14 days; format: functional, organism-based
Lindernia procumbens [33] = experiment: Pre-emergence herbicidal activity against Lindernia procumbens at 500 g a.i/ha measured after 14 days; format: functional, organism-based
Elatine triandra [34] = experiment: Pre-emergence herbicidal activity against Elatine triandra at 500 g a.i/ha measured after 14 days; format: functional, organism-based

For `Cn1cc(C(=O)Nc2ccc(C(C)(C)C)cc2)c(Oc2cccc(C(F)(F)F)c2)n1`, the Activity (Rotala indica [1]) was “inactive”, the Activity (Echinochloa oryzicola [2]) was “Active” and the Activity (Rotala indica [3]) was “Active”. For the same molecule, the Activity (Elatine triandra [4]) was “Active”, the Activity (Pontederia vaginalis [5]) was “inactive” and the Activity (Elatine triandra [6]) was “Active”. The Activity (Cyperus difformis [7]) was “inactive”, the Activity (Pontederia vaginalis [8]) was “Active” and the Activity (Oryza sativa [9]) was “Non-toxic”. For the same molecule, the Activity (Echinochloa oryzicola [10]) was “inactive”, the Activity [11] was “Active” and the Activity (Lindernia procumbens [12]) was “Active”. For the same molecule, the Activity (Ammannia multiflora [13]) was “Active”, the Activity (Lindernia procumbens [14]) was “inactive” and the Activity (Ammannia multiflora [15]) was “inactive”. For the same molecule, the Activity (Ammannia multiflora [16]) was “Active”, the Activity (Pontederia vaginalis [17]) was “Active” and the Activity (Echinochloa oryzicola [18]) was “Active”. The Activity (Cyperus difformis [19]) was “Active”, the Activity (Rotala indica [20]) was “Active” and the Activity (Elatine triandra [21]) was “inactive”. For the same molecule, the Activity [22] was “Active”, the Activity [23] was “inactive” and the Activity (Lindernia procumbens [24]) was “Active”. For the same molecule, the Activity (Cyperus difformis [25]) was “Active”.

`Cn1cc(C(=O)Nc2cccc(S(C)(=O)=O)c2)c(Oc2cccc(C(F)(F)F)c2)n1` was tested, and the Activity (Rotala indica [1]) was “inactive”, the Activity (Echinochloa oryzicola [2]) was “Active” and the Activity (Rotala indica [3]) was “Active”. The Activity (Elatine triandra [4]) was “Active”, the Activity (Pontederia vaginalis [5]) was “inactive” and the Activity (Elatine triandra [6]) was “Active”. For the same molecule, the Activity (Cyperus difformis [7]) was “inactive”, the Activity (Pontederia vaginalis [8]) was “Active” and the Activity (Oryza sativa [9]) was “Non-toxic”. For the same molecule, the Activity (Echinochloa oryzicola [10]) was “inactive”, the Activity [11] was “Active” and the Activity (Lindernia procumbens [12]) was “Active”. The Activity (Ammannia multiflora [13]) was “Active”, the Activity (Lindernia procumbens [14]) was “inactive” and the Activity (Ammannia multiflora [15]) was “inactive”. For the same molecule, the Activity (Ammannia multiflora [16]) was “Active”, the Activity (Pontederia vaginalis [17]) was “Active” and the Activity (Echinochloa oryzicola [18]) was “Active”. The Activity (Cyperus difformis [19]) was “Active”, the Activity (Rotala indica [20]) was “Active” and the Activity (Elatine triandra [21]) was “inactive”. For the same molecule, the Activity [22] was “Active”, the Activity [23] was “inactive” and the Activity (Lindernia procumbens [24]) was “Active”. The Activity (Cyperus difformis [25]) was “Active”.

In the case of `Cn1cc(C(=O)Nc2ccccc2)c(OCc2cccc(C(F)(F)F)c2)n1`, the Activity (Rotala indica [1]) is reported as “Active”, the Activity (Echinochloa oryzicola [2]) is reported as “Active” and the Activity (Rotala indica [3]) is reported as “Active”. For the same molecule, the Activity (Elatine triandra [4]) was “Active”, the Activity (Pontederia vaginalis [5]) was “inactive” and the Activity (Elatine triandra [6]) was “Active”. For the same molecule, the Activity (Cyperus difformis [7]) was “inactive”, the Activity (Pontederia vaginalis [8]) was “Active” and the Activity (Oryza sativa [9]) was “Non-toxic”. For the same molecule, the Activity (Echinochloa oryzicola [10]) was “Active”, the Activity [11] was “Active” and the Activity (Lindernia procumbens [12]) was “Active”. The Activity (Ammannia multiflora [13]) was “Active”, the Activity (Lindernia procumbens [14]) was “Active” and the Activity (Ammannia multiflora [15]) was “Active”. For the same molecule, the Activity (Ammannia multiflora [16]) was “Active”, the Activity (Pontederia vaginalis [17]) was “Active” and the Activity (Echinochloa oryzicola [18]) was “Active”. For the same molecule, the Activity (Cyperus difformis [19]) was “Active”, the Activity (Rotala indica [20]) was “Active” and the Activity (Elatine triandra [21]) was “Active”. For the same molecule, the Activity [22] was “Active”, the Activity [23] was “inactive” and the Activity (Lindernia procumbens [24]) was “Active”. For the same molecule, the Activity (Cyperus difformis [25]) was “Active”.

`CCCONC(=O)c1cn(C)nc1Oc1cccc(C(F)(F)F)c1` was tested, and the Activity (Rotala indica [1]) was “Active”, the Activity (Echinochloa oryzicola [2]) was “Active” and the Activity (Rotala indica [3]) was “Active”. For the same molecule, the Activity [26] was “Active”, the Activity (Echinochloa oryzicola [27]) was “Active” and the Activity (Elatine triandra [4]) was “Active”. The Activity (Pontederia vaginalis [5]) was “Active”, the Activity (Elatine triandra [6]) was “Active” and the Activity (Oryza sativa [28]) was “Toxic”. For the same molecule, the Activity (Pontederia vaginalis [8]) was “Active”, the Activity (Cyperus difformis [29]) was “Active” and the Activity (Pontederia vaginalis [30]) was “Active”. For the same molecule, the Activity (Oryza sativa [9]) was “Non-toxic”, the Activity (Echinochloa oryzicola [10]) was “Active” and the Activity [11] was “Active”. For the same molecule, the Activity (Rotala indica [31]) was “Active”, the Activity (Ammannia multiflora [32]) was “Active” and the Activity (Lindernia procumbens [12]) was “Active”. For the same molecule, the Activity (Ammannia multiflora [13]) was “Active”, the Activity (Lindernia procumbens [14]) was “Active” and the Activity (Ammannia multiflora [15]) was “Active”. The Activity (Ammannia multiflora [16]) was “Active”, the Activity (Pontederia vaginalis [17]) was “Active” and the Activity (Echinochloa oryzicola [18]) was “Active”. The Activity (Cyperus difformis [19]) was “Active”, the Activity (Rotala indica [20]) was “Active” and the Activity (Elatine triandra [21]) was “Active”. The Activity (Lindernia procumbens [33]) was “Active”, the Activity (Elatine triandra [34]) was “Active” and the Activity [22] was “Active”. The Activity [23] was “Active”, the Activity (Lindernia procumbens [24]) was “Active” and the Activity (Cyperus difformis [25]) was “Active”.
